In assay [1] the target is Cytochrome P450 3A4 (Homo sapiens, UniProt P08684). As to the kind of experiment: Inhibition of human recombinant CYP3A4. It counts as ADME.
Assay [2] deals with T1, Cytochrome P450 1A2 (Homo sapiens, UniProt P05177).
T1 sequence (P05177 whole entry): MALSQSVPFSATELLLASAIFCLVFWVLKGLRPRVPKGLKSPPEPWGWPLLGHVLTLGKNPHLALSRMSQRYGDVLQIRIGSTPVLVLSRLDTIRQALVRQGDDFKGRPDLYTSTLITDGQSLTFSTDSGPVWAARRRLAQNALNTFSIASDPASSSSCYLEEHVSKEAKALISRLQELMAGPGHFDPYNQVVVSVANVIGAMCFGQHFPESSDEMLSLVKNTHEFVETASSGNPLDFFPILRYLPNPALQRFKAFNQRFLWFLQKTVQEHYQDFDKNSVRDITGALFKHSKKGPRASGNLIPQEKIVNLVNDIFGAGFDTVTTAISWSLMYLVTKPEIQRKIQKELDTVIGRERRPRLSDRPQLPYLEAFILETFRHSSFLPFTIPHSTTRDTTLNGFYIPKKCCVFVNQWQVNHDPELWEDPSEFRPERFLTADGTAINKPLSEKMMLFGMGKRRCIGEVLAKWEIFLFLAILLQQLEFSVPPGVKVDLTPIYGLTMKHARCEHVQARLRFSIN
Description: Inhibition of human recombinant CYP1A2. The class given is ADME.

Assay [3] concerns the target Cytochrome P450 2C19 (Homo sapiens, UniProt P33261). As to the kind of experiment: Inhibition of human recombinant CYP2C19. The class given is ADME.
In assay [4] the target is Cytochrome P450 2C9 (Homo sapiens, UniProt P11712). As to the kind of experiment: Inhibition of human recombinant CYP2C9. It counts as ADME.
Sequence of Cytochrome P450 2C9 (P11712 whole entry): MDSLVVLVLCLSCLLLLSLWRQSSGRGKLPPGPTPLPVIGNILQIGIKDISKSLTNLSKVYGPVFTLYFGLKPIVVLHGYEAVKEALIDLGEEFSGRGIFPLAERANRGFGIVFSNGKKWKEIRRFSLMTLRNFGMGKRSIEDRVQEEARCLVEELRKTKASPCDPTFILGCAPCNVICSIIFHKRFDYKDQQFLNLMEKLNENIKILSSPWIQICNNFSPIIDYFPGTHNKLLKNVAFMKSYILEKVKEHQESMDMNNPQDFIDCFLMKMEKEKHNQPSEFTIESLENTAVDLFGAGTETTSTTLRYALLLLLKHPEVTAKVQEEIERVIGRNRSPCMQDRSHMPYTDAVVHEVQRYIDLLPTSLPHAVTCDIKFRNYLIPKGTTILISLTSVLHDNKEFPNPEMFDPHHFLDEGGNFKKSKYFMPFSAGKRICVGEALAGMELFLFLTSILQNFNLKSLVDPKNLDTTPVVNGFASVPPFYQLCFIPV
In assay [5] the target is Cytochrome P450 2D6 (Homo sapiens, UniProt P10635). As to the kind of experiment: Inhibition of human recombinant CYP2D6. The class given is ADME.
Sequence of Cytochrome P450 2D6 (P10635 whole entry): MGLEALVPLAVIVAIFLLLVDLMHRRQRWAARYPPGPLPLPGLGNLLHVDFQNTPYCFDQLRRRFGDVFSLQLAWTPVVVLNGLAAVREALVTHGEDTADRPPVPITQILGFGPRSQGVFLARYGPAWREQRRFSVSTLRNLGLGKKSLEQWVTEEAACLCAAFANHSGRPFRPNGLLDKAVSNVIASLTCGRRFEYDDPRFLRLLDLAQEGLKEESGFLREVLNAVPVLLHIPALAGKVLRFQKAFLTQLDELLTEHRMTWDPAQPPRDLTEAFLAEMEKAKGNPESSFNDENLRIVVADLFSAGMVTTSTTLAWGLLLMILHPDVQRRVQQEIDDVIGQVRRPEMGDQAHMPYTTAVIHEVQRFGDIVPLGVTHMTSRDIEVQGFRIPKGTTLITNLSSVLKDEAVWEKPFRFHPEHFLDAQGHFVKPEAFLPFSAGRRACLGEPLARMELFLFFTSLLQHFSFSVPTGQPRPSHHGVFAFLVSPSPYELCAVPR
Assay [6] deals with Candida albicans. Description: Antifungal activity against Candida albicans ATCC 32032 assessed as growth inhibition after 24 to 48 hrs by agar plate bioassay. It counts as functional.
For assay [7], the system named is Saccharomyces cerevisiae. Description: Fungistatic activity against Saccharomyces cerevisiae ATCC 24657 assessed as cell proliferation at 100 uM after 24 hrs by agar plate bioassay relative to control. To be noted: ATCC 24657, 24 h. It counts as functional.
Assay [8] concerns Saccharomyces cerevisiae. Description: Antifungal activity against Saccharomyces cerevisiae ATCC 24657 assessed as growth inhibition after 24 to 48 hrs by agar plate bioassay. The class given is functional.
Assay [9] deals with Saccharomyces cerevisiae. As to the kind of experiment: Fungistatic activity against Saccharomyces cerevisiae ATCC 24657 assessed as cell proliferation at 100 uM after 24 hrs by spectrophotometric bioassay. It counts as functional, organism-based.
For assay [10], the system named is Saccharomyces cerevisiae. Description: Fungistatic activity against Saccharomyces cerevisiae ATCC 24657 assessed as cell growth at 100 uM after 48 hrs by spectrophotometric bioassay. The class given is functional, organism-based.
The subject of assay [11] is Saccharomyces cerevisiae. Description: Fungistatic activity against Saccharomyces cerevisiae ATCC 24657 assessed as cell proliferation at 90.7 uM after 24 hrs by agar plate bioassay relative to control. To be noted: ATCC 24657, 24 h. It counts as functional.
Assay [12] has as its system Saccharomyces cerevisiae. Description: Antifungal activity against Saccharomyces cerevisiae ATCC 24657 assessed as growth at 90.7 uM after 48 hrs by spectrophotometric bioassay relative to control. The class given is functional.
Assay [13] has as its system Saccharomyces cerevisiae. Description: Fungistatic activity against Saccharomyces cerevisiae ATCC 24657 assessed as cell growth at 90.7 uM after 48 hrs by spectrophotometric bioassay. The class given is functional, organism-based.
The subject of assay [14] is Saccharomyces cerevisiae. As to the kind of experiment: Antifungal activity against Saccharomyces cerevisiae ATCC 24657 assessed as growth inhibition at 90.7 uM after 24 hrs by spectrophotometric bioassay. The class given is functional, organism-based.
For assay [15], the system named is Saccharomyces cerevisiae. As to the kind of experiment: Fungistatic activity against Saccharomyces cerevisiae ATCC 24657 assessed as cell proliferation at 90.7 uM after 24 hrs by spectrophotometric bioassay. The class given is functional, organism-based.
Assay [16] concerns Candida albicans. Description: Antifungal activity against Candida albicans assessed as morphogenetic transformation after 3 hrs by phase-contrast microscopy. The class given is functional.
Assay [17] has as its system Saccharomyces cerevisiae. As to the kind of experiment: Antifungal activity against Saccharomyces cerevisiae ATCC 24657 assessed as growth inhibition at 90.7 uM after 24 hrs by agar plate bioassay. The class given is functional, organism-based.
The test system of assay [18] is Saccharomyces cerevisiae. Description: Antifungal activity against Saccharomyces cerevisiae ATCC 24657 assessed as growth at 90.7 uM after 48 hrs by agar plate bioassay relative to control. It counts as functional.
Assay [19] deals with Saccharomyces cerevisiae. Description: Fungistatic activity against Saccharomyces cerevisiae ATCC 24657 assessed as cell proliferation compound after 24 to 48 hrs by agar plate bioassay. It counts as functional, organism-based.
For assay [20], the system named is Saccharomyces cerevisiae. As to the kind of experiment: Fungistatic activity against Saccharomyces cerevisiae ATCC 24657 assessed as cell proliferation compound after 24 to 48 hrs by spectrophotometric bioassay. It counts as functional, organism-based.
The test system of assay [21] is Saccharomyces cerevisiae. As to the kind of experiment: Antifungal activity against Saccharomyces cerevisiae ATCC 24657 assessed as growth inhibition at 31.2 uM after 24 to 48 hrs by spectrophotometric bioassay. The class given is functional, organism-based.
The test system of assay [22] is Saccharomyces cerevisiae. Description: Antifungal activity against Saccharomyces cerevisiae ATCC 24657 assessed as growth inhibition at 31.2 uM after 24 to 48 hrs by agar plate bioassay. It counts as functional, organism-based.

Values after ≈ are worked out from the molar mass of the structure shown. Active and inactive are the calls of the source. The calls are words filed in the database; no cut-off is given here. A value given as a limit tells only on which side of the number the result lay.

Sequence of Cytochrome P450 2C19 (P33261 whole entry): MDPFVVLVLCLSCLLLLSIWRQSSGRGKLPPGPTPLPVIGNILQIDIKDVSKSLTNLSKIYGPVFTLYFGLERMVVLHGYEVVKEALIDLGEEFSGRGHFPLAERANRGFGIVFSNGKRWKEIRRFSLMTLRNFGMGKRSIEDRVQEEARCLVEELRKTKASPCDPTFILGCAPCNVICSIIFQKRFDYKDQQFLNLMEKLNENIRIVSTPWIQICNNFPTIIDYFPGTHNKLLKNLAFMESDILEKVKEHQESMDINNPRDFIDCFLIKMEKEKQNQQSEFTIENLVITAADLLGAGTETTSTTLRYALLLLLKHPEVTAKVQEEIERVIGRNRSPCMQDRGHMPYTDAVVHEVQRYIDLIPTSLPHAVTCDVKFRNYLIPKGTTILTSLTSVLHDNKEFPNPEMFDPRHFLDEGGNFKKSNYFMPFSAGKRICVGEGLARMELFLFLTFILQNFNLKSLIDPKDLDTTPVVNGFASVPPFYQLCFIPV
Sequence of Cytochrome P450 3A4 (P08684 whole entry): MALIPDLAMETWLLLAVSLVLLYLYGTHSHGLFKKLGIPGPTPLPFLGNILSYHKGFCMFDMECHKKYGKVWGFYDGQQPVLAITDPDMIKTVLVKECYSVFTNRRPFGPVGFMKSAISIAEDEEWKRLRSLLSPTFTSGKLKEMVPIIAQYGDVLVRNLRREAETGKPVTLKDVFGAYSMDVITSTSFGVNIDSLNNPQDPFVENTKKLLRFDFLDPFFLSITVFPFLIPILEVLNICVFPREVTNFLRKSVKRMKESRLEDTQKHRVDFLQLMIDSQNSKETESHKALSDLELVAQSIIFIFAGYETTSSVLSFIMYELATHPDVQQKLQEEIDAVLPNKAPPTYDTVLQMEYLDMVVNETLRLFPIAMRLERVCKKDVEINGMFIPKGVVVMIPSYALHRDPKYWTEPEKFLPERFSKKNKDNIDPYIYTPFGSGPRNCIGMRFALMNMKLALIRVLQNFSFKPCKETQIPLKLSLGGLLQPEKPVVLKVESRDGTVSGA

In general, IC50 refers to the concentration at which inhibition is half-maximal. One may read the MIC as the least concentration at which growth counts as inhibited. With `COc1ccc(-c2sc(/N=C/c3ccc(-c4ccccc4)cc3)c(C#N)c2C)cc1OC`, the IC50 in [1] was more than 100 µM; in [2], 26 µM; in assay [3] it was 2.3 µM; in [4] it was 1.4 µM; in assay [5] it was more than 100 µM. Further, the MIC in assay [6] came out at 8 µM (≈ 3.51 µg/mL).
Usually inhibition stands for the share of the control response that was lost under treatment. Usually MIC50 stands for an inhibitory concentration at the 50% level, which refers to growth in some studies and to a panel of isolates in others. `COc1ccc(-c2sc(/N=C/c3ccc(N(C)CCC#N)cc3)c(C#N)c2C)cc1OC`: the IC50 in assay [1] came to 33.2 µM; in assay [2], 11.9 µM; in [3] it was 1.1 µM; in assay [4], 1.2 µM; in assay [5] it was 23.3 µM. Moreover, the inhibition at 100 µM in assay [7] came out at 95%. Besides, the MIC in [8] stood at 118 µM (≈ 52.5 µg/mL); in assay [6] it was 12 µM (≈ 5.33 µg/mL). Also, the MIC50 in assay [8] was 2.7 µM (≈ 1.2 µg/mL). For the same molecule, the outcome in assay [9] was Active. Moreover, the outcome in assay [10] was inactive.
Regarding `CCC(C)n1ncn(-c2ccc(N3CCN(c4ccc(OCC5COC(Cn6cncn6)(c6ccc(Cl)cc6Cl)O5)cc4)CC3)cc2)c1=O` (centres undefined) [ITRACONAZOLE], in assay [11], the inhibition at 90.7 µM is 95%. Besides, the “fold change (FC)” value in assay [12] and in assay [18] was 1.5 throughout. Besides, the outcome in [13] was inactive. Also, the “growth inhibition (GI)” value in [14] and in assay [17] was “inactive” throughout. For the same molecule, the outcome in [15] was Active. In addition, the MIC in assay [16] is more than 90.7 µM.
With `CC(=O)N1CCN(c2ccc(OCC3COC(Cn4ccnc4)(c4ccc(Cl)cc4Cl)O3)cc2)CC1` (centres undefined), the result in [19] and in assay [20] was inactive. The “growth inhibition (GI)” value in assay [21] and in [22] was “Active” each time.

Source of the values: ChEMBL document CHEMBL1926617, “Antifungal activities of novel non-azole molecules against S. cerevisiae and C. albicans” (Eur J Med Chem, 2012).
